Measured values reported in publication PMC7316778 (Nature Communications, 2020).
Several values for one entry are separate records, joined by “and”; a condition that tells them apart may be missing. Equal values may be shown once. Read-outs that look alike come from different tables or passages of the source.

Columns and labels:
[1] = molecular target: PRKCN (PKD3) (Homo sapiens, UniProt O94806); test: SelectScreen kinase assay
Description: (§1) Selectivity profiling assays were performed by the Invitrogen SelectScreen™ Services. […] The concentration of ATP was selected to be equal to the KM, unless indicated otherwise.

[2] = molecular target: T1, FES^WT (Homo sapiens, UniProt P07332); test: In vitro TR-FRET kinase assay; format: biochemical; conditions: TR-FRET assay, 5 µM ATP; n = 3; read-out: pIC50 FES^WT (converted)
T1 construct: human FES cDNA encoding residues 448–822 or human FER cDNA encoding residues 448–820 was amplified by PCR; made in house; host or cells: E. coli BL21(DE3), co-expressing YopH phosphatase
Description: All measurements were performed in triplicate.

[3] = molecular target: RPS6KB2 (p70S6Kb) (Homo sapiens, UniProt Q9UBS0); test: SelectScreen kinase assay
Sequence of RPS6KB2 (p70S6Kb) (Q9UBS0 whole entry): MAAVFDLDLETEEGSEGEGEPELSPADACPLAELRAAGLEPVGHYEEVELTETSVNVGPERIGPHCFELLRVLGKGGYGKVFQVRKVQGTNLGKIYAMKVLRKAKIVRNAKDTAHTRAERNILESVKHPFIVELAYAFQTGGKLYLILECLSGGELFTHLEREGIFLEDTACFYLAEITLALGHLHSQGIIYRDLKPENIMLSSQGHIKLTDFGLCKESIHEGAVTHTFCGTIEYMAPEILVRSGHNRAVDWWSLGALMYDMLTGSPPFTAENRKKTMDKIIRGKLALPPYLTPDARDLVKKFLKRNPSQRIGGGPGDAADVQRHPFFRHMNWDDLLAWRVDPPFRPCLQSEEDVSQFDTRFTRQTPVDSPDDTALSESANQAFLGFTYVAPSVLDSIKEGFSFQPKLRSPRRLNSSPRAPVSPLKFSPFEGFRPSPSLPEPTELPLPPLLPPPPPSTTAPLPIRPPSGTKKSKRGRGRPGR
Description: as §1

[4] = molecular target: NEK2 (Homo sapiens, UniProt P51955); test: SelectScreen kinase assay
Description: as §1

[5] = molecular target: EGFR (ErbB1) (Homo sapiens, UniProt P00533); test: SelectScreen kinase assay
Sequence of EGFR (ErbB1) (P00533 25-1210): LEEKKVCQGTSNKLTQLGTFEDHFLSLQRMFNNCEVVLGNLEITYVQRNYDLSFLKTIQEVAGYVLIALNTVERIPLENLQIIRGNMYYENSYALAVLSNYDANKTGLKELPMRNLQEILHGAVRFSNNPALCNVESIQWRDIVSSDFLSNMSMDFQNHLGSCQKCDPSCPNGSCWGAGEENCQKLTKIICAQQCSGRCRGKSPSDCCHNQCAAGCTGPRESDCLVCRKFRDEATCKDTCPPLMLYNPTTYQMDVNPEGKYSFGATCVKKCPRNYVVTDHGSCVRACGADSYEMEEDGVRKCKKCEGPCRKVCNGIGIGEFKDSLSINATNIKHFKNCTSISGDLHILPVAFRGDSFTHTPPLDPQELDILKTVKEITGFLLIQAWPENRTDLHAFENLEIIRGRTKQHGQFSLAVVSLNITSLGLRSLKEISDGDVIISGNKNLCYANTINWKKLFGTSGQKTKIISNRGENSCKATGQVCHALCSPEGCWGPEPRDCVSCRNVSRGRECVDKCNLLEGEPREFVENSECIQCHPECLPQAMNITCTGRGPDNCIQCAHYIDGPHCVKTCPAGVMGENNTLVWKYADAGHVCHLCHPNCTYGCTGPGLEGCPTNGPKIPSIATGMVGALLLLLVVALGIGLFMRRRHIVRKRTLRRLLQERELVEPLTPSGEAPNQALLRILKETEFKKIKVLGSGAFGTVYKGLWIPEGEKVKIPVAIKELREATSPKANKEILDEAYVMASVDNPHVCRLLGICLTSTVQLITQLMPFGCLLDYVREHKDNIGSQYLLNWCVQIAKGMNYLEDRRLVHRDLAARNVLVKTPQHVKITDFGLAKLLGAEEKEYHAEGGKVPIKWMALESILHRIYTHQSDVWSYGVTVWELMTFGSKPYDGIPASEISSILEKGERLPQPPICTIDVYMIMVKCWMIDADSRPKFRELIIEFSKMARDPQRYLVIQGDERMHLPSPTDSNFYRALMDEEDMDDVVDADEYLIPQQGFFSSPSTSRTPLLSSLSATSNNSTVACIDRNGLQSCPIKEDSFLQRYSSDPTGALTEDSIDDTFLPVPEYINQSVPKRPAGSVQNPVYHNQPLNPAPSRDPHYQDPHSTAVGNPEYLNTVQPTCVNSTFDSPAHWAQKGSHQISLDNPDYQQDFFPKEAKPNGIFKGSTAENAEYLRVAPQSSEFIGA
Description: as §1

[6] = molecular target: HIPK3 (YAK1) (Homo sapiens, UniProt Q9H422); test: SelectScreen kinase assay
Description: as §1

[7] = molecular target: NEK4 (Homo sapiens, UniProt P51957); test: SelectScreen kinase assay
Description: as §1

[8] = molecular target: CDK7/cyclin H/MNAT1 (Homo sapiens, UniProt P50613); test: SelectScreen kinase assay
Description: as §1

[9] = molecular target: RPS6KA6 (RSK4) (Homo sapiens, UniProt Q9UK32); test: SelectScreen kinase assay
Sequence of RPS6KA6 (RSK4) (Q9UK32 whole entry): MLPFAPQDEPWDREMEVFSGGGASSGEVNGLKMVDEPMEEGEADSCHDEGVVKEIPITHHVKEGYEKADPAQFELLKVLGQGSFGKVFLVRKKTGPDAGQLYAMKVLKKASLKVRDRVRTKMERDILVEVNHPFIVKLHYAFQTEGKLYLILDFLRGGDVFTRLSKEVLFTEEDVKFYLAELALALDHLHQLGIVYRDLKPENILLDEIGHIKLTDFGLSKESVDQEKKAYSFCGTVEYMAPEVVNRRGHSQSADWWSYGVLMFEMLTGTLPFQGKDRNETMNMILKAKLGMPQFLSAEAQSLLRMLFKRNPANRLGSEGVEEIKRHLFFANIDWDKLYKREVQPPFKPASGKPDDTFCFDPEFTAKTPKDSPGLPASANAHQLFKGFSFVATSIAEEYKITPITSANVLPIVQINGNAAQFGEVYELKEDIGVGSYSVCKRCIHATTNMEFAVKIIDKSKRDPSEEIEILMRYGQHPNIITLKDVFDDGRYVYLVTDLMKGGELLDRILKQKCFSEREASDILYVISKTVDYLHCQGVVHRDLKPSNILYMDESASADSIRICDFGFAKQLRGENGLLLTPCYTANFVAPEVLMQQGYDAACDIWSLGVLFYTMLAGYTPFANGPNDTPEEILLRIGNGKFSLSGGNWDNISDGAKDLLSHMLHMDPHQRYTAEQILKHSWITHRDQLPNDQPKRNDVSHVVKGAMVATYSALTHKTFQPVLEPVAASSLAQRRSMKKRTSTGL
Description: as §1

[10] = molecular target: T2, MARK4 (Homo sapiens, UniProt Q96L34); test: SelectScreen kinase assay
T2 sequence (Q96L34 1-752): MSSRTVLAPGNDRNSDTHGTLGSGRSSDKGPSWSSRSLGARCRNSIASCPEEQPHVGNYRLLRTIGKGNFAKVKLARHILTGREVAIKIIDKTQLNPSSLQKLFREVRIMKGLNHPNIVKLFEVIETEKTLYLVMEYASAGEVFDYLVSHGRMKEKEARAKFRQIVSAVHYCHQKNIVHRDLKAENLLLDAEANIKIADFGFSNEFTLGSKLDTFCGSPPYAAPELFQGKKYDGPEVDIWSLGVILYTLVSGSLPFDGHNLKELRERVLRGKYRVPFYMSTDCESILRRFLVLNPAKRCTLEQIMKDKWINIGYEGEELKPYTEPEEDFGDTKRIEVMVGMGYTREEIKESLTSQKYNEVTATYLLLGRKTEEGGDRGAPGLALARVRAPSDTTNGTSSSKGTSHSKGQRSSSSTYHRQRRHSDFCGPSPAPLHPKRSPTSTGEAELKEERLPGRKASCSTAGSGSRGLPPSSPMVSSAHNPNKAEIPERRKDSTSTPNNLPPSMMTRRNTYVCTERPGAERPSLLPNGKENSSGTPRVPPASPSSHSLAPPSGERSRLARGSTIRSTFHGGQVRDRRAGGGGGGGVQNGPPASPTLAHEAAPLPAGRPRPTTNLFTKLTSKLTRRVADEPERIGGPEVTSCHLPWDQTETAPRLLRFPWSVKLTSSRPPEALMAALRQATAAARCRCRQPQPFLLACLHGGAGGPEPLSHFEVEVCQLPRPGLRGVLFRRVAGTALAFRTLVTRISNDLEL
Description: as §1

[11] = molecular target: T3, GRK1 (Homo sapiens, UniProt Q15835); test: SelectScreen kinase assay
T3 sequence (Q15835 1-563): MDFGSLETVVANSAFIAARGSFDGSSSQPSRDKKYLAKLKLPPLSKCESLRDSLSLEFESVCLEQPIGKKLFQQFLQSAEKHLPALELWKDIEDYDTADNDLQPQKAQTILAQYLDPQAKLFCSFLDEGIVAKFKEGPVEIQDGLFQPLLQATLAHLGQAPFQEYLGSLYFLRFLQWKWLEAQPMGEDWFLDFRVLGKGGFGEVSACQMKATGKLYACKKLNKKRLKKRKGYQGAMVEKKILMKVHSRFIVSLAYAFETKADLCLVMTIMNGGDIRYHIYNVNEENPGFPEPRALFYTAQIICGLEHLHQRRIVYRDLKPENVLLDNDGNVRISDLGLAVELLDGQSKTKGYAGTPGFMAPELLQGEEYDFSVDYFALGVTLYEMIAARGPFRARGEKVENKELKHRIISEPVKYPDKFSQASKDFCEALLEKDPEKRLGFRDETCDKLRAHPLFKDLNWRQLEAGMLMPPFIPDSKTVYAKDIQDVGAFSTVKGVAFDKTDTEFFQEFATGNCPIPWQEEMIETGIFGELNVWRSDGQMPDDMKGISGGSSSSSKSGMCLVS
Description: as §1

[12] = molecular target: FRAP1 (mTOR) (Homo sapiens, UniProt P42345); test: SelectScreen kinase assay
Description: as §1

[13] = system: KDR (VEGFR2); test: SelectScreen kinase assay; conditions: IC50 on that kinase divided by IC50 on FES^S700C
Description: as §1

[14] = molecular target: ALK (Homo sapiens, UniProt Q9UM73); test: SelectScreen kinase assay
Sequence of ALK (Homo sapiens, UniProt Q9UM73) (Q9UM73 19-1620, species assumed): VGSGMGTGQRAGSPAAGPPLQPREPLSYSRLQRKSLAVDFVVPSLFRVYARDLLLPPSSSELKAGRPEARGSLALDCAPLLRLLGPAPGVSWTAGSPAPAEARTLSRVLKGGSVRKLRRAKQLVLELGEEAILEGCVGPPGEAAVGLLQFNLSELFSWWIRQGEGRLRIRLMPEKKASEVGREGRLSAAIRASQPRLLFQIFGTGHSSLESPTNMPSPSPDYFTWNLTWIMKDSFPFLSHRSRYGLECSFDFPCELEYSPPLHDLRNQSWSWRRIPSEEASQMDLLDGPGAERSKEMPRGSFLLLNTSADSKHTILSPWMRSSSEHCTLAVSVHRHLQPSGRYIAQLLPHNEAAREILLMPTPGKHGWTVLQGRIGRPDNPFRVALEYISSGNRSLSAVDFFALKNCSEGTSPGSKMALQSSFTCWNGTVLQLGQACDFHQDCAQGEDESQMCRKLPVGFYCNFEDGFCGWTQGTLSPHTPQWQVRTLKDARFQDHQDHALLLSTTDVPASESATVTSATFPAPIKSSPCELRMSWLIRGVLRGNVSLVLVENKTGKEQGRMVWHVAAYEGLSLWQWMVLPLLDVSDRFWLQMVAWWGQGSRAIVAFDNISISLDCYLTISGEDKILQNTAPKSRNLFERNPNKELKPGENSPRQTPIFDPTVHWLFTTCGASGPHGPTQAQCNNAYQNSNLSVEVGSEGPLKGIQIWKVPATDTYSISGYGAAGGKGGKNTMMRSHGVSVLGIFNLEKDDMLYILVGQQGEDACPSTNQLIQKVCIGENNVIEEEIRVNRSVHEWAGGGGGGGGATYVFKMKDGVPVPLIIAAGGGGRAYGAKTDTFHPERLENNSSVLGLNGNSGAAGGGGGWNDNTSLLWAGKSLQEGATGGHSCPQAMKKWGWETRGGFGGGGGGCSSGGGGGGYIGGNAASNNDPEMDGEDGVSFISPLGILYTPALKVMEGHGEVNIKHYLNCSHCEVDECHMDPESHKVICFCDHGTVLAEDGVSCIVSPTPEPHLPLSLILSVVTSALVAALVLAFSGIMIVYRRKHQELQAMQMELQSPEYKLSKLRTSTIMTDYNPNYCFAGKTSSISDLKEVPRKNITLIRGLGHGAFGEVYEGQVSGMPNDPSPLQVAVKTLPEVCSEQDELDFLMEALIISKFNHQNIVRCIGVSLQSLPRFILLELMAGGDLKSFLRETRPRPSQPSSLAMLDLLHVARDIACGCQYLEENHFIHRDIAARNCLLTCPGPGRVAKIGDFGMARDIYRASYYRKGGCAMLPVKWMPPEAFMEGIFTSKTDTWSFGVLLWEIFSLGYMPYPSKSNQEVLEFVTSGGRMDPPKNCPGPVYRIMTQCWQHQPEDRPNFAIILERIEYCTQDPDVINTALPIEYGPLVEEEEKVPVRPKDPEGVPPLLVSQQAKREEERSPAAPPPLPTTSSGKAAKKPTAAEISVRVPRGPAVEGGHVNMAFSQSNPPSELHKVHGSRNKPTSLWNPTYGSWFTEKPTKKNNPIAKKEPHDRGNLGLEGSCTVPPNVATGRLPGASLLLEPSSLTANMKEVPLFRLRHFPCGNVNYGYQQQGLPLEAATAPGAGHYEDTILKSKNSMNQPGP
Description: as §1

[15] = system: ALK; test: SelectScreen kinase assay; conditions: IC50 on that kinase divided by IC50 on FES^S700C
Description: as §1

[16] = molecular target: TLK1 (Homo sapiens, UniProt Q9UKI8); test: SelectScreen kinase assay
Description: as §1

[17] = molecular target: EPHA4 (Homo sapiens, UniProt P54764); test: SelectScreen kinase assay
Sequence of EPHA4 (P54764 20-986): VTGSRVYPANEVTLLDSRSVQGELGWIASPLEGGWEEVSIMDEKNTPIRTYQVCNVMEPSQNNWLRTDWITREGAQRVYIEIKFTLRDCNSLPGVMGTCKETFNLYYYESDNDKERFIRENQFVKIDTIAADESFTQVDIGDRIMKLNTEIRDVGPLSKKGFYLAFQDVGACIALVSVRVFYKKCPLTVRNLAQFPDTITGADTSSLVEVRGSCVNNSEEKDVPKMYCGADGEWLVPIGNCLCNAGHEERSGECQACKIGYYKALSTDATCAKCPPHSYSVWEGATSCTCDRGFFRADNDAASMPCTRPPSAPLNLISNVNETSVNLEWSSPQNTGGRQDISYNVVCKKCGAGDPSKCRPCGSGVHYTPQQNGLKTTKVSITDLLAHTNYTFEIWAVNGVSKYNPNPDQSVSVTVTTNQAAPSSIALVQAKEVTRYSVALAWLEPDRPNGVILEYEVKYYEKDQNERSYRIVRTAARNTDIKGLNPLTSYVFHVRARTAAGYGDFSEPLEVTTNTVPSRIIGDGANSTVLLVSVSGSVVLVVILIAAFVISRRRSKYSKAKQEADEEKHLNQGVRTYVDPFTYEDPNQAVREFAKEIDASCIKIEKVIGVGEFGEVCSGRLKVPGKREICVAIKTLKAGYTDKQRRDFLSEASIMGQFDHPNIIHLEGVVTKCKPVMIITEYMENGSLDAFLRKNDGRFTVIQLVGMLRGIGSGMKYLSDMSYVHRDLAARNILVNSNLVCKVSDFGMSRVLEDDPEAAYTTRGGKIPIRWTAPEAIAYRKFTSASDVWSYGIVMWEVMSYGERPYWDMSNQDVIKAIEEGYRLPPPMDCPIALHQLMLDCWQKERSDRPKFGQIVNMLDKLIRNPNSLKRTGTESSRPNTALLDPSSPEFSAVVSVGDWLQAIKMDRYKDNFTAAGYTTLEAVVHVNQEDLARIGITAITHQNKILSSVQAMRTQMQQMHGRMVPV
Description: as §1

[18] = 1 h, 1 μM WEL028, 1 h preincubation
[19] = 1 µM, ZLYTE, ATP Km app, listed as WEL028, 1 µM

SMILES: C#CCOc1ccc(Nc2ncc(Cl)c(Nc3ccccc3NC(=O)C=C)n2)c(OC)c1 [Compound 6]
- inhibition at 1 µM [1, 18]: 31%
- inhibition at 1 µM ([1]; read-out: Inhibition at 1 µM (%), PRKCN (PKD3), 1 µM, ZLYTE, ATP Km app): 32%
- IC50 [2]: > 3000 nM
- Inhibition at 1 µM (%) [3, 19]: 1% and 4%
- inhibition at 1 µM [3, 18]: 3%
- inhibition at 1 µM [4, 18]: 12%
- Inhibition at 1 µM (%) ([4]; NEK2, 1 µM, ZLYTE, ATP Km app): 21%
- Inhibition (%) ([5]; 1 μM WEL028, 1 h preincubation): 6%
- Inhibition at 1 µM (%) ([5]; EGFR (ErbB1), 1 µM, ZLYTE, ATP Km app, listed as WEL028, 1 µM): 8%
- inhibition at 1 µM ([5]; read-out: Inhibition at 1 µM (%), EGFR (ErbB1), 1 µM, ZLYTE, ATP Km app): 4%
- inhibition at 1 µM [6, 18]: -3%
- Inhibition at 1 µM (%) ([6]; HIPK3 (YAK1), 1 µM, ZLYTE, ATP Km app): -11%
- inhibition at 1 µM [7, 18]: 4%
- Inhibition at 1 µM (%) ([7]; NEK4, 1 µM, ZLYTE, ATP Km app, listed as WEL028, 1 µM): 5%
- inhibition at 1 µM ([7]; read-out: Inhibition at 1 µM (%), NEK4, 1 µM, ZLYTE, ATP Km app): 4%
- inhibition at 1 µM [8, 18]: 6%
- Inhibition at 1 µM (%) ([8]; CDK7/cyclin H/MNAT1, 1 µM, Adapta, ATP Km app, listed as WEL028, 1 µM): 2% and 11%
- Inhibition (%) ([9]; 1 μM WEL028, 1 h preincubation): 5%
- Inhibition at 1 µM (%) [9, 19]: 1% and 9%
- Inhibition (%) ([10]; 1 μM WEL028, 1 h preincubation): 8%
- Inhibition at 1 µM (%) ([10]; MARK4, 1 µM, ZLYTE, ATP Km app, listed as WEL028, 1 µM): 6%
- inhibition at 1 µM ([10]; read-out: Inhibition at 1 µM (%), MARK4, 1 µM, ZLYTE, ATP Km app): 9%
- inhibition at 1 µM [11, 18]: 8%
- Inhibition at 1 µM (%) ([11]; GRK1, 1 µM, LanthaScreen Binding, listed as WEL028, 1 µM): 7%
- inhibition at 1 µM ([11]; read-out: Inhibition at 1 µM (%), GRK1, 1 µM, LanthaScreen Binding): 9%
- inhibition at 1 µM [12, 18]: 11%
- Inhibition at 1 µM (%) ([12]; FRAP1 (mTOR), 1 µM, ZLYTE, ATP Km app): 19%
- Apparent fold selectivity [13]: 153 fold
- IC50 [14]: 126 nM
- inhibition at 1 µM [14, 18]: 89%
- inhibition at 1 µM ([14]; read-out: Inhibition at 1 µM (%), ALK, 1 µM, ZLYTE, ATP Km app): 90%
- Apparent fold selectivity [15]: 28 fold
- inhibition at 1 µM [16, 18]: 1%
- inhibition at 1 µM ([16]; read-out: Inhibition at 1 µM (%), 1 µM, LanthaScreen Binding): 2%
- inhibition at 1 µM [17, 18]: 5%
- Inhibition at 1 µM (%) ([17]; EPHA4, 1 µM, ZLYTE, ATP Km app, listed as WEL028, 1 µM): 4%
- inhibition at 1 µM ([17]; read-out: Inhibition at 1 µM (%), EPHA4, 1 µM, ZLYTE, ATP Km app): 5%
